According to US20250115577A1, “BCL-2 Inhibitors” (Eil Therapeutics, Inc., priority 2021, published 2025):
pEC50, pIC50: −log10 of the molar value.

Legend:
MOLT-4 cells = assay: Cell viability assay (CellTiter-Glo), MOLT-4; format: cell-based; conditions: Homo sapiens, 72 h, 3 days of incubation
Procedure: (§1) Example D. Cell Viability Assays (Cell lines HEK293, RS4-11, MOLT-4)
(§2) Cells were seeded at a density of 4000 cells per well in the 384-well clear bottom plate (Greiner Cat #781090) to the 45 μL total volume of either DMEM (PanEco, Cat #C420, for HEK293) or RPMI (PanEco, Cat #C330, for other cell lines) with 10% FBS(HyClone Cat #SV30160.03). Prior to adding compounds, the HEK293 cells were allowed to adhere overnight at 37° C. and 5% CO2. The 500× compounds solutions in DMSO(Sigma Cat #D2650) were dispersed into a 384-well compound plate (Diamond Well Plate, Axigen, Cat #P-384-120 SQ-C—S) including only DMSO control. The 1 μL aliquots of the 500× compounds from the compound plate were added to 49 μL of culture medium in the Dilution plate (Diamond Well Plate, Axigen, Cat #P-384-120 SQ-C—S), mixed and then the 5 μL aliquts of the 10× compound solutions were transferred to cells followed by centrifugation at 100 g for 1 min. Final DMSO concentration was 0.2%. After 3 days of incubation the 10 μL aliquots of CellTiter-Glo (Promega, CAT #G7572) were added to the cells, plate was centrifuged at 100 g for 1 min and the luminescence was measured on the CLARIOstar Plus (BMG LABTECH) instrument.
(§3) Instrumentation: CLARIOstar Plus (BMG LABTECH); Biomek FX for liquid handling (Beckman Coulter).

BCL-xL = BCL-xL (Homo sapiens (Human), UniProt Q07817); assay: BCL-xL TR-FRET Assay (primary PPI inhibition); format: binding; conditions: 60 min incubation, read-out: BCLxL IC50
BCL-xL, sequence (Q07817 whole entry): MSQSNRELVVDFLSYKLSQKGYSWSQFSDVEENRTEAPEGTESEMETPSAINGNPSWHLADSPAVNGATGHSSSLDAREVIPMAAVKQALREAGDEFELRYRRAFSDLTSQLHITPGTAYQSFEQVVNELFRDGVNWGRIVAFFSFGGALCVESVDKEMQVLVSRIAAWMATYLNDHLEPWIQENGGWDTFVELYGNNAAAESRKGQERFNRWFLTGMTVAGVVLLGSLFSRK
Procedure: Example B. BCL-xL TR-FRET Assay (BPS Bioscience, #50223)
The following assay concentrations and times were used: 10.5 ng of BCL-xL, 5 μL of 1:120 anti-His Tb-labeled donor, 5 μL of 1:120 Dye-labeled acceptor, 5 μL of 1:96 BCL-xL Peptide Ligand, 2 μL of 200× test compound, with 60 min incubation time (final concentration of DMSO 0.5%). The results of the assay were read using a plate reader with the following parameters: TR FRET, 340ex/620 and 665em; 60 usec Delay; and 500 usec integration.
as §3

BCL-2 = BCL-2 (Homo sapiens (Human), UniProt P10415); assay: BCL-2 TR-FRET Assay (primary PPI inhibition); format: binding; conditions: 60 min incubation, read-out: BCL2 IC50
BCL-2, sequence (P10415 whole entry): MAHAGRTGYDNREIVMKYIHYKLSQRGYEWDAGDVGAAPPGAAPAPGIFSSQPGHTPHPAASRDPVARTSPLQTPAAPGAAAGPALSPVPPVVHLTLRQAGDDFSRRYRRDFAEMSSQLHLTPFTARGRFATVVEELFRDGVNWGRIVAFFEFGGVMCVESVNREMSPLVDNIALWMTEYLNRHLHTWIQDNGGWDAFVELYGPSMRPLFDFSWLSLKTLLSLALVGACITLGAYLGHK
Procedure: Example A. BCL-2 TR-FRET Assay (BPS Bioscience, #50222)
The following assay concentrations and times were used: 3 ng of BCL-2, 5 μL of 1:100 anti-His Tb-labeled donor, 5 μL of 1:100 Dye-labeled acceptor, 5 µL of 1:40 BCL-2 Peptide Ligand, and 2 μL of 200× test compound, with 60 min incubation time (final concentration of DMSO 0.5%). The results of the assay were read using a plate reader with the following parameters: TR FRET, 340ex/620 and 665em; 60 usec Delay; and 500 usec integration.
as §3

[1] = tested on: caspase-3 and -7 activities in RS4-11 cells; assay: Caspase-3/7 activation (Caspase-Glo 3/7) in RS4-11 cells; format: cell-based; conditions: Homo sapiens, 3.5 h, read-out: Cas-3/7 EC50
Procedure: Example E. Caspase-3/7 Activation
Assay Principle: The Caspase-Glo 3/7 Assay is homogeneous, luminescent assay that measures caspase-3 and -7 activities. The assay provides a luminogenic caspase-3/7 substrate, which contains the tetrapeptide sequence DEVD, in a reagent optimized for caspase activity.
Assay Procedure: Incubate RS4-11 (ATCC, CRL-1873) cells in the 384-well white plate (Corning, #3570) with varying concentrations of test compounds for 3.5 h in a humidified incubator at 37° C. and 5% CO2 […]. Add 15 μL of the Caspase-Glo (Promega, #8212) reagent to each well and to incubate the plate for 30 min at rt. Read on the CLARIOstar Plus (BMG LABTECH) instrument.
as §3

RS4-11 cells = assay: Cell viability assay (CellTiter-Glo), RS4-11; format: cell-based; conditions: Homo sapiens, RS4-11, 72 h, 3 days of incubation
Procedure: as §1, §2, §3

[2] = Cell viability assay (CellTiter-Glo), HEK293; format: cell-based; conditions: human, HEK293 cells, 3 days of incubation
Procedure: as §1, §2, §3

Row | Compound | CC50 (MOLT-4 cells) [nM] | pIC50 (BCL-xL) | pIC50 (BCL-2) | pEC50 [1] | CC50 (RS4-11 cells) [nM] | CC50 at 3 days [2] [nM]
1 | COc1cccc(CN(C(=O)c2cc(-c3ccc(OC(F)F)cc3C(=O)N3Cc4ccccc4C[C@H]3CN3CCOCC3)n(C)c2C)c2ccc(Cl)cc2)c1C [Compound 12, N-(4-chlorophenyl)-5-[4-(difluoromethoxy)-2-[(3S)-3-(morpholinomethyl)-3,4-dihydro-1H-isoquinoline-2-carbonyl]phenyl]-N-[(3-methoxy-2-methyl-phenyl)methyl]-1,2-dimethyl-pyrrole-3-carboxamide] | ≤ 5000 | 5.30 to 5.70 | < 7.30 | < 6.30 | > 200 | > 25000
2 | COc1cccc(CN(C(=O)c2cc(-c3cc(C(F)F)c(Cl)cc3C(=O)N3Cc4ccccc4C[C@H]3CN3CCOCC3)n(C)c2C)c2ccc(C#N)cc2)c1C [Compound 24, 5-[4-chloro-5-(difluoromethyl)-2-[(3S)-3-(morpholinomethyl)-3,4-dihydro-1H-isoquinoline-2-carbonyl]phenyl]-N-(4-cyanophenyl)-N-[(3-methoxy-2-methyl-phenyl)methyl]-1,2-dimethyl-pyrrole-3-carboxamide] | > 10000 | 5.30 to 5.70 | < 7.30 | < 6.30 | > 200 | > 25000
3 | COc1cccc(CN(C(=O)c2cc(-c3cc(F)c(OC(F)F)cc3C(=O)N3Cc4ccccc4C[C@H]3CN3CCOCC3)n(C)c2C)c2ccc(Cl)cc2)c1C [Compound 26, N-(4-chlorophenyl)-5-[4-(difluoromethoxy)-5-fluoro-2-[(3S)-3-(morpholinomethyl)-3,4-dihydro-1H-isoquinoline-2-carbonyl]phenyl]-N-[(3-methoxy-2-methyl-phenyl)methyl]-1,2-dimethyl-pyrrole-3-carboxamide] | ≤ 5000 | 5.30 to 5.70 | < 7.30 | < 6.30 | > 200 | > 25000
4 | COc1cccc(CN(C(=O)c2cc(-c3cc(Cl)c(F)cc3C(=O)N3Cc4ccccc4C[C@H]3CN3CCOCC3)n(C)c2C)c2ccc(O)cc2)c1C [Compound 27, 5-[5-chloro-4-fluoro-2-[(3S)-3-(morpholinomethyl)-3,4-dihydro-1H-isoquinoline-2-carbonyl]phenyl]-N-(4-hydroxyphenyl)-N-[(3-methoxy-2-methyl-phenyl)methyl]-1,2-dimethyl-pyrrole-3-carboxamide] | ≤ 5000 | 5.30 to 5.70 | 7.30 to 8.00 | 6.30 to 6.70 | 100 to 200 | > 25000
5 | COc1cccc(CN(C(=O)c2cc(-c3cc(Cl)ccc3C(=O)N3Cc4ccccc4C[C@H]3CN3CCOCC3)n(C)c2C)c2ccc(C#N)cc2)c1C [Compound 33, 5-[5-chloro-2-[(3S)-3-(morpholinomethyl)-3,4-dihydro-1H-isoquinoline-2-carbonyl]phenyl]-N-(4-cyanophenyl)-N-[(3-methoxy-2-methyl-phenyl)methyl]-1,2-dimethyl-pyrrole-3-carboxamide] |  | 5.30 to 5.70 | < 7.30 |  |  | 
6 | COc1cccc(CN(C(=O)c2cc(-c3cc(Cl)c(OC(F)F)cc3C(=O)N3Cc4ccccc4C[C@H]3CN3CCOCC3)n(C)c2C)c2ccc(C#N)cc2)c1C [Compound 40, 5-[5-chloro-4-(difluoromethoxy)-2-[(3S)-3-(morpholinomethyl)-3,4-dihydro-1H-isoquinoline-2-carbonyl]phenyl]-N-(4-cyanophenyl)-N-[(3-methoxy-2-methyl-phenyl)methyl]-1,2-dimethyl-pyrrole-3-carboxamide] |  | 5.30 to 5.70 | < 7.30 |  |  | 
7 | COc1cccc(CN(C(=O)c2cc(-c3cc(F)c(OC(F)F)cc3C(=O)N3Cc4ccccc4C[C@H]3CN3CCOCC3)n(C)c2C)c2ccc(C#N)cc2)c1C [Compound 44, N-(4-cyanophenyl)-5-[4-(difluoromethoxy)-5-fluoro-2-[(3S)-3-(morpholinomethyl)-3,4-dihydro-1H-isoquinoline-2-carbonyl]phenyl]-N-[(3-methoxy-2-methyl-phenyl)methyl]-1,2-dimethyl-pyrrole-3-carboxamide] |  | 5.30 to 5.70 | < 7.30 |  |  | 
8 | COc1cccc(CN(C(=O)c2cc(-c3c(C)cc(Cl)cc3C(=O)N3Cc4ccccc4C[C@H]3CN3CCOCC3)n(C)c2C)c2ccc(O)cc2)c1C [Compound 50, 5-[4-chloro-2-methyl-6-[(3S)-3-(morpholinomethyl)-3,4-dihydro-1H-isoquinoline-2-carbonyl]phenyl]-N-(4-hydroxyphenyl)-N-[(3-methoxy-2-methyl-phenyl)methyl]-1,2-dimethyl-pyrrole-3-carboxamide] |  | 5.30 to 5.70 | < 7.30 |  |  | 
9 | COc1cc(-c2cc(C(=O)N(Cc3ccccc3C#N)c3ccc(Cl)cc3)c(C)n2C)c(C(=O)N2Cc3ccccc3C[C@H]2CN2CCOCC2)cc1C#N [Compound 59, N-(4-chlorophenyl)-5-[4-cyano-5-methoxy-2-[(3S)-3-(morpholinomethyl)-3,4-dihydro-1H-isoquinoline-2-carbonyl]phenyl]-N-[(2-cyanophenyl)methyl]-1,2-dimethyl-pyrrole-3-carboxamide] |  | 5.30 to 5.70 | < 7.30 |  |  | 
10 | COc1cc(-c2cc(C(=O)N(Cc3cccc(OC)c3C)c3ccc(Cl)cc3)c(C)n2C)c(C(=O)N2Cc3ccccc3C[C@H]2CN2CCOCC2)cc1C#N [Compound 60, N-(4-chlorophenyl)-5-[4-cyano-5-methoxy-2-[(3S)-3-(morpholinomethyl)-3,4-dihydro-1H-isoquinoline-2-carbonyl]phenyl]-N-[(3-methoxy-2-methyl-phenyl)methyl]-1,2-dimethyl-pyrrole-3-carboxamide] |  | 5.30 to 5.70 | < 7.30 |  |  | 
11 | COc1ccccc1CN(C(=O)c1cc(-c2cc(OC)c(C(N)=O)cc2C(=O)N2Cc3ccccc3C[C@H]2CN2CCOCC2)n(C)c1C)c1ccc(Cl)cc1 [Compound 63, 5-[4-carbamoyl-5-methoxy-2-[(3S)-3-(morpholinomethyl)-3,4-dihydro-1H-isoquinoline-2-carbonyl]phenyl]-N-(4-chlorophenyl)-N-[(2-methoxyphenyl)methyl]-1,2-dimethyl-pyrrole-3-carboxamide] | ≤ 5000 |  | 7.30 to 8.00 | < 6.30 | 100 to 200 | 10000 to 25000
12 | Cc1c(C(=O)N(Cc2ccccc2C#N)c2ccc3cn[nH]c3c2)cc(-c2cc([N+](=O)[O-])ccc2C(=O)N2Cc3ccccc3C[C@H]2CN2CCOCC2)n1C [Compound 66, N-[(2-cyanophenyl)methyl]-N-(1H-indazol-6-yl)-1,2-dimethyl-5-[2-[(3S)-3-(morpholinomethyl)-3,4-dihydro-1H-isoquinoline-2-carbonyl]-5-nitro-phenyl]pyrrole-3-carboxamide] |  | < 5.30 | < 7.30 |  |  | 
13 | COc1cccc(CN(C(=O)c2cc(-c3cc([N+](=O)[O-])ccc3C(=O)N3Cc4ccccc4C[C@H]3CN3CCOCC3)n(C)c2C)c2ccc3cn[nH]c3c2)c1C [Compound 67, N-(1H-indazol-6-yl)-N-[(3-methoxy-2-methyl-phenyl)methyl]-1,2-dimethyl-5-[2-[(3S)-3-(morpholinomethyl)-3,4-dihydro-1H-isoquinoline-2-carbonyl]-5-nitro-phenyl]pyrrole-3-carboxamide] |  | < 5.30 | < 7.30 |  |  | 
